Active and inactive are the calls of the source. No cut-off for these calls is given here.
Key:
GTPase HRas [1] = molecular target: T1, GTPase HRas (Homo sapiens, UniProt P01112); assay: Binding affinity to [15N]-H-Ras (1 to 166) (unknown origin) by NMR spectrometry
Target sequence in this assay (P01112 whole entry): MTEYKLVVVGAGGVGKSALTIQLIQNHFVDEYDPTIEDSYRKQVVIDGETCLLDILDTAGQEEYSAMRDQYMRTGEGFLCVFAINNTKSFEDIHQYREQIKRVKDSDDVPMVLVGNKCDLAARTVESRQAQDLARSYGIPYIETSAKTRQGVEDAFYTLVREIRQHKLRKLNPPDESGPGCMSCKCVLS

GTPase HRas [2] = molecular target: T1, GTPase HRas; assay: Inhibition of recombinant N-terminal His-tagged H-Ras (unknown origin) expressed in Escherichia coli M15 assessed as inhibition of GEF-mediated nucleotide exchange after 300 secs by luminescence spectrophotometry
Target sequence in this assay (P01112 whole entry): as above

NIH3T3 [3] = assay: Inhibition of cell proliferation in mouse NIH/3T3 cells expressing K-RAS at 100 uM after 24 to 72 hrs by coulter counting analysis; assay type: functional, cell-based
[4] = Inhibition of cell proliferation in mouse NIH/3T3 cells after 24 to 72 hrs by coulter counting analysis; assay type: cell-based; details: nih3t3
NIH3T3 [5] = assay: Inhibition of cell proliferation in mouse NIH/3T3 cells expressing K-RAS after 24 to 72 hrs by coulter counting analysis; assay type: functional, cell-based
[6] = Inhibition of cell proliferation in mouse NIH/3T3 cells at 100 uM after 24 to 72 hrs by coulter counting analysis; assay type: cell-based; details: nih3t3, 100 µM
GTPase HRas [7] = molecular target: T1, GTPase HRas; assay: Inhibition of recombinant N-terminal His-tagged H-Ras (unknown origin) expressed in Escherichia coli M15 assessed as inhibition of human Sos1-mediated nucleotide exchange after 300 secs by luminescence spectrophotometry
Mus musculus = species on record: Mus musculus; assay: Inhibition of Ras in mouse NIHRAS cells assessed as reduction of phosphorylated MAPK level at 250 uM after 24 hrs by sandwich ELISA; assay type: cell-based

SMILES | Kd (GTPase HRas [1]) [µM] | IC50 (GTPase HRas [2]) [µM] | inhibition (NIH3T3 [3]) | inhibition (INH) [4] | inhibition (NIH3T3 [5]) | Activity [6] | IC50 (GTPase HRas [7]) [µM] | inhibition (GTPase HRas [7]) | inhibition (Mus musculus)
Oc1ccc(CNOCc2ccccc2)cc1O | 21.4 | 320 |  |  |  |  |  |  | 
OC[C@H]1OC(N(Cc2ccc(O)c(O)c2)OCc2ccccc2)[C@H](O)[C@@H](O)[C@@H]1O (stereo partly drawn) | 9.5 | 80 | Active | Dose-dependent effect | Dose-dependent effect | Toxic |  |  | 
OC[C@H]1O[C@@H](O[C@H]2[C@H](O)[C@@H](O)C(N(Cc3ccc(O)c(O)c3)OCc3ccccc3)O[C@@H]2CO)[C@H](O)[C@@H](O)[C@H]1O (stereo partly drawn) | 7.8 | 100 | Active | Dose-dependent effect | Dose-dependent effect | Toxic |  |  | 
CC(=O)N[C@H]1C(N(Cc2ccc(O)c(O)c2)OCc2ccccc2)O[C@H](CO)[C@@H](O)[C@@H]1O (stereo partly drawn) | 5.5 | 80 | Active | Dose-dependent effect | Dose-dependent effect | Toxic | 122 | Dose-dependent effect | Active
